Data published in patent publication US20120010075A1 (priority 2009, published 2012).

Test system: Phytophthora capsici
Experiment: In vitro fungitoxicity of hydrazones with and without copper towards Phytophthora capsici (Example 28, Table 3)
Type: cell-based
Settings: 0.039 μg/mL; Colby formula; CuCl2, 50 μM

SMILES | % Inhn Plus copper Predicted [%]
O=C(N/N=C/c1cccc(F)c1O)c1ccccc1 [Example 15] | 81.2

Same assay, conditions: 0.039 μg/mL; copper-minus AS medium; 48 h

SMILES | % Inhn Minus copper Observed [%]
O=C(N/N=C/c1cccc(F)c1O)c1ccccc1 [Example 15] | 80.4

Same assay, conditions: 0.039 μg/mL; copper-plus AS medium (CuCl2, 50 μM); 48 h

SMILES | % Inhn Plus copper Observed [%]
O=C(N/N=C/c1cccc(F)c1O)c1ccccc1 [Example 15] | 91.8
O=C(N/N=C/c1cc(Cl)cc(Cl)c1O)c1ccccc1C(F)(F)F [Example 56] | 94.1
COc1cccc(C(=O)N/N=C/c2cc(Cl)cc(Cl)c2O)c1C [Example 99] | 94.0
Cc1cc(C)cc(C(=O)N/N=C/c2cc(Cl)cc(Cl)c2O)c1 [Example 102] | 93.6
C/C(=N\NC(=O)Cc1ccc(C(F)(F)F)cc1)c1cc(Cl)cc(Cl)c1O [Example 129] | 96.3

Same assay, conditions: 0.050 μg/mL; copper-plus AS medium (CuCl2, 50 μM); 48 h

SMILES | % Inhn Plus copper Observed [%]
O=C(N/N=C/c1cc(Br)cc(Br)c1O)c1ccccc1 [Example 121] | 90.4
Cc1ccccc1C(=O)N/N=C/c1cc(Cl)cc(Br)c1O [Example 162] | 91.6
O=C(N/N=C/c1cc(Cl)ccc1O)c1ccccc1O [Example 177] | 92.4
O=C(N/N=C/c1ccccc1O)c1cc(Cl)ccc1Br [Example 218] | 93.3
O=C(N/N=C/c1cc(Cl)cc(Cl)c1O)c1cc(Cl)ccc1Br [Example 219] | 90.6
O=C(N/N=C/c1cc(Br)cc(Br)c1O)c1cc(Cl)ccc1Br [Example 220] | 85.5

Same assay, conditions: Phytophthora capsici; 0.039 μg/mL; copper-minus AS medium; 48 h; read-out: % Inhn Minus copper Observed

SMILES | inhibition of growth at 0.039 µg/mL [%]
O=C(N/N=C/c1cc(Cl)cc(Cl)c1O)c1ccccc1C(F)(F)F [Example 56] | 57.5
COc1cccc(C(=O)N/N=C/c2cc(Cl)cc(Cl)c2O)c1C [Example 99] | 23.6
Cc1cc(C)cc(C(=O)N/N=C/c2cc(Cl)cc(Cl)c2O)c1 [Example 102] | 15.7
C/C(=N\NC(=O)Cc1ccc(C(F)(F)F)cc1)c1cc(Cl)cc(Cl)c1O [Example 129] | 10.6

Same assay, conditions: Phytophthora capsici; 0.050 μg/mL; copper-minus AS medium; 48 h; read-out: % Inhn Minus copper Observed

SMILES | inhibition of growth at 0.05 µg/mL [%]
O=C(N/N=C/c1cc(Br)cc(Br)c1O)c1ccccc1 [Example 121] | 0
Cc1ccccc1C(=O)N/N=C/c1cc(Cl)cc(Br)c1O [Example 162] | 5.2
O=C(N/N=C/c1cc(Cl)ccc1O)c1ccccc1O [Example 177] | 0
O=C(N/N=C/c1ccccc1O)c1cc(Cl)ccc1Br [Example 218] | 10.7
O=C(N/N=C/c1cc(Cl)cc(Cl)c1O)c1cc(Cl)ccc1Br [Example 219] | 15.3
O=C(N/N=C/c1cc(Br)cc(Br)c1O)c1cc(Cl)ccc1Br [Example 220] | 13.4

Test system: Phytophthora infestans
Experiment: not given
Type: in vivo, Phytophthora infestans on tomato
Settings: hydrazone 50 ppm + 50 μM CuCl2.2H2O, applied 24 h before inoculation, assessed 7 days after inoculation, tomato

SMILES | TLB % Control [%]
O=C(N/N=C/c1cccc(F)c1O)c1ccccc1 [Example 15] | 58.5
O=C(N/N=C/c1cc(Cl)cc(Cl)c1O)c1ccccc1C(F)(F)F [Example 56] | 81.3
COc1cccc(C(=O)N/N=C/c2cc(Cl)cc(Cl)c2O)c1C [Example 99] | 50.3
Cc1cc(C)cc(C(=O)N/N=C/c2cc(Cl)cc(Cl)c2O)c1 [Example 102] | 74.0
O=C(N/N=C/c1cc(Br)cc(Br)c1O)c1ccccc1 [Example 121] | 88.1
C/C(=N\NC(=O)Cc1ccc(C(F)(F)F)cc1)c1cc(Cl)cc(Cl)c1O [Example 129] | 49.0
Cc1ccccc1C(=O)N/N=C/c1cc(Cl)cc(Br)c1O [Example 162] | 94.0
O=C(N/N=C/c1cc(Cl)ccc1O)c1ccccc1O [Example 177] | 91.0
O=C(N/N=C/c1ccccc1O)c1cc(Cl)ccc1Br [Example 218] | 70.9
O=C(N/N=C/c1cc(Cl)cc(Cl)c1O)c1cc(Cl)ccc1Br [Example 219] | 68.4
O=C(N/N=C/c1cc(Br)cc(Br)c1O)c1cc(Cl)ccc1Br [Example 220] | 89.1

Test system: Ustilago maydis
Experiment: In vitro fungitoxicity of hydrazones with and without copper towards Ustilago maydis (Example 29, Table 4)
Type: cell-based
Settings: 1 μg/mL; copper-plus medium (CuCl2, 10 μM); 48 h

SMILES | % Inhn. Plus copper Observed [%]
O=C(N/N=C/c1cc(Br)cc(Br)c1O)c1ccccc1 [Example 121] | 96.9
Cc1ccccc1C(=O)N/N=C/c1cc(Cl)cc(Br)c1O [Example 162] | 96.4
O=C(N/N=C/c1cc(Cl)ccc1O)c1ccccc1O [Example 177] | 33.3

Same assay, conditions: Mycosarcoma maydis; 1 μg/mL; copper-minus medium; 48 h; read-out: % Inhn. Minus copper Observed

SMILES | inhibition of growth at 1 µg/mL [%]
O=C(N/N=C/c1cc(Br)cc(Br)c1O)c1ccccc1 [Example 121] | 0
Cc1ccccc1C(=O)N/N=C/c1cc(Cl)cc(Br)c1O [Example 162] | 8.8
O=C(N/N=C/c1cc(Cl)ccc1O)c1ccccc1O [Example 177] | 0

Test system: Leptosphaeria nodorum (LEPTNO)
Experiment: In vitro fungitoxicity of hydrazones with and without copper towards Leptosphaeria nodorum (Example 26)
Type: cell-based
Settings: Parastagonospora nodorum, 72 h, compound 0.05 μg/mL, copper-minus medium, 72 h at 25° C.; read-out: LEPTNO % Inhn. Minus Copper Observed

SMILES | inhibition of growth at 0.05 µg/mL [%]
O=C(N/N=C/c1cc(Cl)cc(Cl)c1O)c1ccccc1C(F)(F)F [Example 56] | 2.1
COc1cccc(C(=O)N/N=C/c2cc(Cl)cc(Cl)c2O)c1C [Example 99] | 8.9
Cc1cc(C)cc(C(=O)N/N=C/c2cc(Cl)cc(Cl)c2O)c1 [Example 102] | 0
O=C(N/N=C/c1cc(Br)cc(Br)c1O)c1ccccc1 [Example 121] | 0
C/C(=N\NC(=O)Cc1ccc(C(F)(F)F)cc1)c1cc(Cl)cc(Cl)c1O [Example 129] | 5.5
Cc1ccccc1C(=O)N/N=C/c1cc(Cl)cc(Br)c1O [Example 162] | 0
O=C(N/N=C/c1cc(Cl)ccc1O)c1ccccc1O [Example 177] | 12.5
O=C(N/N=C/c1ccccc1O)c1cc(Cl)ccc1Br [Example 218] | 0
O=C(N/N=C/c1cc(Cl)cc(Cl)c1O)c1cc(Cl)ccc1Br [Example 219] | 34.5
O=C(N/N=C/c1cc(Br)cc(Br)c1O)c1cc(Cl)ccc1Br [Example 220] | 0

Same assay, conditions: compound 0.05 μg/mL, copper-minus medium, 72 h at 25° C.

SMILES | LEPTNO % Inhn. Minus Copper Observed [%]
O=C(N/N=C/c1cccc(F)c1O)c1ccccc1 [Example 15] | 4.4

Same assay, conditions: compound 0.05 μg/mL, copper-plus medium (CuCl2.2H2O), 72 h at 25° C.

SMILES | LEPTNO % Inhn. Plus Copper Observed [%]
O=C(N/N=C/c1cccc(F)c1O)c1ccccc1 [Example 15] | 96.6
O=C(N/N=C/c1cc(Cl)cc(Cl)c1O)c1ccccc1C(F)(F)F [Example 56] | 96.3
COc1cccc(C(=O)N/N=C/c2cc(Cl)cc(Cl)c2O)c1C [Example 99] | 94.5
Cc1cc(C)cc(C(=O)N/N=C/c2cc(Cl)cc(Cl)c2O)c1 [Example 102] | 93.4
O=C(N/N=C/c1cc(Br)cc(Br)c1O)c1ccccc1 [Example 121] | 98.3
C/C(=N\NC(=O)Cc1ccc(C(F)(F)F)cc1)c1cc(Cl)cc(Cl)c1O [Example 129] | 97.8
Cc1ccccc1C(=O)N/N=C/c1cc(Cl)cc(Br)c1O [Example 162] | 96.9
O=C(N/N=C/c1cc(Cl)ccc1O)c1ccccc1O [Example 177] | 95.2
O=C(N/N=C/c1ccccc1O)c1cc(Cl)ccc1Br [Example 218] | 92.5
O=C(N/N=C/c1cc(Cl)cc(Cl)c1O)c1cc(Cl)ccc1Br [Example 219] | 97.9
O=C(N/N=C/c1cc(Br)cc(Br)c1O)c1cc(Cl)ccc1Br [Example 220] | 95.3

Test system: Septoria tritici isolate USA-184
Experiment: In vitro fungitoxicity of hydrazones with and without copper towards Septoria tritici (Example 30, Table 5)
Type: cell-based
Settings: Zymoseptoria tritici; 0.05 μg/mL; Colby formula; CuCl2; read-out: % Inhibition Plus copper Predicted

SMILES | inhibition at 0.05 µg/mL [%]
O=C(N/N=C/c1cc(Br)cc(Br)c1O)c1ccccc1 [Example 121] | 9.7
Cc1ccccc1C(=O)N/N=C/c1cc(Cl)cc(Br)c1O [Example 162] | 36.3
O=C(N/N=C/c1cc(Cl)ccc1O)c1ccccc1O [Example 177] | 0.2

Same assay, conditions: Zymoseptoria tritici; 0.05 μg/mL; copper-minus medium; 90 h; read-out: % Inhibition Minus copper Observed

SMILES | inhibition at 0.05 µg/mL [%]
O=C(N/N=C/c1cc(Br)cc(Br)c1O)c1ccccc1 [Example 121] | 9.7
Cc1ccccc1C(=O)N/N=C/c1cc(Cl)cc(Br)c1O [Example 162] | 36.3
O=C(N/N=C/c1cc(Cl)ccc1O)c1ccccc1O [Example 177] | 0.2

Same assay, conditions: Zymoseptoria tritici; 0.05 μg/mL; copper-plus medium CuCl2; 90 h; read-out: % Inhibition Plus copper Observed

SMILES | inhibition at 0.05 µg/mL [%]
O=C(N/N=C/c1cc(Br)cc(Br)c1O)c1ccccc1 [Example 121] | 96.5
Cc1ccccc1C(=O)N/N=C/c1cc(Cl)cc(Br)c1O [Example 162] | 97.1
O=C(N/N=C/c1cc(Cl)ccc1O)c1ccccc1O [Example 177] | 95.2

Test system: not given
Experiment: not given
Settings: not given

SMILES | melting point [°C]
O=C(N/N=C/c1cccc(F)c1O)c1ccccc1 [Example 15] | 197 to 198
O=C(N/N=C/c1cc(Cl)cc(Cl)c1O)c1ccccc1C(F)(F)F [Example 56] | 106 to 111
COc1cccc(C(=O)N/N=C/c2cc(Cl)cc(Cl)c2O)c1C [Example 99] | 192 to 194
Cc1cc(C)cc(C(=O)N/N=C/c2cc(Cl)cc(Cl)c2O)c1 [Example 102] | 207 to 209
C/C(=N\NC(=O)Cc1ccc(C(F)(F)F)cc1)c1cc(Cl)cc(Cl)c1O [Example 129] | 207 to 212
O=C(N/N=C/c1ccccc1O)c1cc(Cl)ccc1Br [Example 218] | 222 to 225
O=C(N/N=C/c1cc(Cl)cc(Cl)c1O)c1cc(Cl)ccc1Br [Example 219] | 228 to 231
O=C(N/N=C/c1cc(Br)cc(Br)c1O)c1cc(Cl)ccc1Br [Example 220] | 215 to 218
